Data published in US20150204881A1, “Biomarkers For Diagnosis Of Diabetes And Monitoring Of Anti-Diabetic Therapy” (Sumitomo Bakelite Co., Ltd., priority 2012, published 2015).

What was measured:
db/db mice [1] = assay: Plasma N-glycan profiling (MALDI-TOF MS) in insulin detemir- vs vehicle-treated db/db mice; type: in vivo, mouse
Method: A 10 μl aliquot of each plasma sample was spiked with internal standard (700 pmol) and analyzed for N-linked glycans using Ezose Sciences' GLYCANMAP methodology. The samples were denatured and then digested with trypsin, followed by heat-inactivation. The mixture was then treated with PNGase F. After enzymatic release of N-glycans, aliquots were subjected to solid-phase processing using BLOTGLYCO beads. Following capture on the beads, the sialic acid residues were methyl esterified. The glycans were simultaneously released from the beads and labeled, and then aliquots of the recovered materials were spotted onto a MALDI target plate. Steps from initial aliquoting to spotting on the MALDI plate were performed using the fully automated SWEETBLOT technology. MALDI-TOF MS analysis was performed on an ultraflex III mass spectrometer (Bruker Daltonics) in the positive-ion, reflector mode. Each sample from the BLOTGLYCO bead processing step was spotted in quadruplicate, and spectra were obtained in an automated manner using the AutoXecute feature in flexControl software (Bruker Daltonics). Proposed glycan structures were assigned based on molecular weight. These methods have been described previously by Nishimura, Furukawa and Miura (Nishimura et al., Angew Chem. Int. Ed. Engl., 44: 91-96 (2004); Furukawa et al., Anal. Chem., 80: 1094-1101 (2008); Miura et al., Chem.-A Eur. J, 13: 4797-4804 (2007)). Alternatively, standard fluorescent HPLC or capillary electrophoresis methods with 2-AA, 2-AB, or APTS labeling can be used to monitor the glycan levels and changes in glycan patterns.
A further study was undertaken to evaluate the performance of candidate biomarkers discovered using rosiglitazone in mice treated with a diabetes drug having a different mechanism of action. The candidate biomarkers that were identified in Example 1 were evaluated in db/db mice treated with insulin detemir and vehicle.
Plasma samples were analyzed from ten db/db mice at baseline (0 days) and from 20 db/db mice (ten vehicle and ten insulin detemir-treated) at 7, 14, and 21 days. Sample preparation and analysis followed the protocol described in Example 1.
Concentrations of individual glycans in insulin detemir- and vehicle-treated db/db mice were compared at each time-point using the Student's t-test. N-glycans which yielded p-values <0.05 in this analysis were considered significant. Time-dependence was also evaluated for each of the candidate biomarkers by comparing each time-point to baseline.

db/db mice [2] = assay: HbA1c in treated db/db mice; type: in vivo, mouse
[3] = db/db mice treated with insulin detemir vs vehicle
[4] = plasma, db/db mice vs vehicle, 7, 14, 21 days

Compound: insulin detemir
- Changes in Glycan 540020 (db/db mice [1]; [3]): no significant changes
- Changes in O-acetylated N-glycans (db/db mice [1]; [3]): no significant changes
- Changes in fucosylated N-glycans (db/db mice [1]; [3]): no significant changes
- High mannose glycans (520000, 620000, 720000, 820000) with insulin detemir treatment (db/db mice [1]; db/db mice vs vehicle, significant at Day 7, 14 and 21, lower in magnitude than with rosiglitazone): lower levels
- Hybrid glycans (430010, 530010, 630010) vs vehicle-treated controls (db/db mice [1]; db/db mice, as early as Day 7): significant decreases
- Direction of Change with Insulin Detemir: High Mannose glycan 520000 (db/db mice [1]; [4]): Decreased
- Direction of Change with Insulin Detemir: High Mannose glycan 620000 (db/db mice [1]; [4]): Decreased
- Direction of Change with Insulin Detemir: High Mannose glycan 720000 (db/db mice [1]; [4]): Decreased
- Direction of Change with Insulin Detemir: High Mannose glycan 820000 (db/db mice [1]; [4]): Decreased
- Direction of Change with Insulin Detemir: Hybrid glycan 430010 (db/db mice [1]; [4]): Decreased
- Direction of Change with Insulin Detemir: Hybrid glycan 530010 (db/db mice [1]; [4]): Decreased
- Direction of Change with Insulin Detemir: Hybrid glycan 630010 (db/db mice [1]; [4]): Decreased
- Changes in HbA1c (db/db mice [2]; insulin-treated db/db mice, compared with rosiglitazone): more subtle changes

Compound: CN(CCOc1ccc(CC2SC(=O)NC2=O)cc1)c1ccccn1 (centres unmarked) [Rosiglitazone]
- Time until HbA1c difference reached p<0.001 significance (db/db mice [2]; first rosiglitazone study, db/db mice vs vehicle): 21 days
